Measurements from article PMC3871529, “At a Supra-Physiological Concentration, Human Sexual Hormones Act as Quorum-Sensing Inhibitors” (PLoS ONE, 2013).

Legend:
[1] = molecular target: T1, LasR (Pseudomonas aeruginosa, UniProt P25084); test: E. coli bioindicator expressing LasR (pAL105, lasI::luxCDABE luminescence); format: cell-based; details: OC12-HSL 100 µM; QSIs at 0.1 mg/ml, naringenin and naringin at 0.5 mg/ml
T1 construct: expressed in transfected cells; host or cells: Escherichia coli JLD271 carrying pAL105 (pSB401-derivative, lasR+ lasI::luxCDABE)
Procedure: (§1) We determined whether the AHL-binding transcriptional factors LasR and RhlR were impaired in their capacity to activate expression of the QS-regulated genes in the presence of various QSIs. This was achieved by using two E. coli bioindicator strains expressing either LasR or RhlR proteins and harboring an appropriate reporter lux operon for measuring their transcriptional activity in the presence of OC12-HSL at 100 µM and C4-HSL at 10 µM, respectively. Adding C4-HSL to the pAL101-bioindicator or OC12-HSL to the pAL105-bioindicator induced the expression of the reporter lux operon and the consequent production of luminescence. In contrast, only background levels of luminescence were detected in control strains harboring the plasmids pAL102 or pAL106, which lacks the rhlR or lasR gene, respectively.
(§2) Figure 7 QSIs modulated activity of the AHL-sensors in P. aeruginosa. Luminescence of the reporting operon lux, expressed in relative light units (RLU/OD600), was measured in E. coli bioindicator strains harboring the LasR (A) and RhlR (B) AHL-sensing systems of P. aeruginosa in the presence of […]. The QSIs estradiol, estrone, estriol and hordenine were added at 0.1 mg/ml, while naringenin and naringin, added at 0.5 mg/ml, were used as QSI-reference and non-QSI reference, respectively. Each test (n = 6) was compared with the DMSO-condition using Student's t test. Asterisks indicate statistically different data (p value of ≤0.01).
(§3) Escherichia coli JLD271 biosensor strains harboring LasR- and RhlR-based plasmids pAL105 and pAL101 and control plasmids pAL106 (LasR^-) and pAL102 (RhlR^−) (Table 1) were prepared according to Vandeputte et al.. Briefly, these strains were grown in LB medium supplemented with tetracycline (10 µg/ml) and chloramphenicol (25 µg/ml) for 24 h. Then 50-µl portions of the cultures were subcultured in 1 ml of LB medium (the starting OD600 ranged between 0.02 and 0.025 corresponding to 5.10^6 CFU) supplemented with 10 µl of DMSO (1% [vol/vol] final), 10 µl of naringenin or naringin dissolved in DMSO (2 mM, final concentration), or 10 µl of the molecule to be tested. To induce the expression of the lux operon, 0, 1, 10 or […] of C4-HSL was added to pAL101 and pAL102, while OC12-HSL was added to pAL105 and pAL106. After incubation for 2 h at 37°C with agitation (175 rpm), 200 µl of culture was transferred to 96-well OptiPlate-96 F plates from Perkin-Elmer, and the luminescence of each sample was measured by using a TopCount NXT device from Perkin-Elmer. The LasR(pAL106) and RhlR(pAL102) biosensors were used for background subtraction, and the OD600 values were measured to account for the differences in cell density. All experiments were performed in six replicates. The statistical significance of each test was evaluated by conducting Student's t tests using the GraphPad Prism software, and p values ≤0.05 were considered significant. Naringenin (4′,5,7-trihydroxyflavanone), naringin (4′,5,7-trihydroxyflavanone 7-rhamnoglucoside), the AHLs OC12-HSL and C4-HSL were purchased from Sigma-Aldrich and dissolved freshly in 100% DMSO before use. Tested QSIs were dissolved in 100% DMSO before use.

[2] = molecular target: T2, RhlR (Pseudomonas aeruginosa, UniProt P54292); test: E. coli bioindicator expressing RhlR (pAL101, rhlI::luxCDABE luminescence); format: cell-based; details: C4-HSL 10 µM; QSIs at 0.1 mg/ml, naringenin and naringin at 0.5 mg/ml
T2 construct: expressed in transfected cells; host or cells: Escherichia coli JLD271 carrying pAL101 (pSB401-derivative, rhlR+ rhlI::luxCDABE)
Procedure: as §1, §2, §3

[3] = system: Agrobacterium biosensor cells; test: Minimal inhibitory concentration (MIC); format: cell-based, Agrobacterium tumefaciens; details: Agrobacterium; 10^5 CFU/ml, 36 h at 30°C; read-out: MIC
Procedure: (§4) Aside from the effect of QSI on QS regulation, the toxicity of these compounds was tested on bacterial cells by measuring two parameters: the minimal inhibitory concentration (MIC) and minimal bactericidal concentration (MBC). MIC, which is the lowest concentration of QSI (µg/ml) inhibiting any visible culture after 36 h of incubation at 30°C, was estimated by culturing 10^5 CFU/ml of the Agrobacterium biosensor cells in the presence of different concentrations of the QSI. MBC, which is the lowest concentration of QSI (µg/ml) that results in a 99.9% reduction of the initial bacterial population (10^5 CFU/ml) after 36 h of incubation at 30°C in the presence of different concentrations of QSI, was estimated by plating 100 µL of the Agrobacterium cultures on agar LBm plates. After an incubation of 48 h at 30°C, CFU were counted and the MBC values were calculated.

[4] = system: Agrobacterium biosensor cells; test: Minimal bactericidal concentration (MBC); format: cell-based, Agrobacterium tumefaciens; details: Agrobacterium; 99.9% reduction of 10^5 CFU/ml after 36 h at 30°C; read-out: MBC
Procedure: as §4

[5] = system: P. aeruginosa; test: Growth kinetics of P. aeruginosa in the presence of QSIs; format: cell-based, Pseudomonas aeruginosa; details: QSI at 0.5 mg/ml, OD600 and CFU at 8 and 18 hour
Procedure: (§5) Figure 5 QSIs modulated QS-signal accumulation in P. aeruginosa. Growth kinetics (n = 6) of P. aeruginosa was measured (OD600) in the presence of the QSIs (estradiol, estrone, estriol, hordenine and 4-NPO) at 0.5 mg/ml using DMSO as a negative control. Cell counts were assessed (CFU/ml) at 8- and 18-hour, and C4-HSL and OC12-HSL concentration (µM) were determined in the bacterial cultures at 18-hour. Statistically different values (Student's t test with α = 0.01) are noted by asterisks.
(§6) QS gene transcription in P. aeruginosa PAO1 was monitored using PAO1 strains carrying various gene promoters fused to a lacZ reporter gene, as described in Vandeputte et al., 2010 and Table 1. PAO1 reporter strains were prepared according to Vandeputte et al.. Briefly, 18-hours-old liquid cultures (50 µl) were diluted in order to obtain a starting OD600 nm comprised between 0.02 and 0.03 in fresh LB medium supplemented with 50 mM MOPS pH 7.0 (1 ml), carbenicillin (300 µg/ml) and 10 µl of the QSIs to be tested (OD were measured using a SpectraMax M2 device from Molecular Devices). Test and control QSIs were diluted in 100% DMSO (resulting after addition to the growth medium in a 1% final concentration of DMSO). Cultures were incubated for 18 hours at 37°C with agitation. After incubation, cell densities were assessed spectrophotometrically (OD600 nm) and β-galactosidase assays were performed using the substrate o-nitrophenyl-β-D-galactopyranoside as described previously, [29]. Promoterless-lacZ fusions were used as controls. AHLs were quantified as described in Vandeputte et al.. All tests were performed in quintuplicates and three biological repetitions. The statistical significance of each test was evaluated by conducting Student's t tests and two-way ANOVA combined with the Tukey post-analysis test using the GraphPad Prism software and p values≤0.01 were considered significant.

[6] = system: QS-signal accumulation in P. aeruginosa; test: AHL (C4-HSL, OC12-HSL) quantification in P. aeruginosa cultures by mass spectrometry; format: cell-based, Pseudomonas aeruginosa; details: QSI at 0.5 mg/ml, 18-hour
Procedure: as §5, §6

[7] = system: QS-regulated genes lasI, lasR, lasB, rhlI, rhlR, rhlA in P. aeruginosa PAO1; test: QS-regulated gene expression, lacZ transcriptional fusions in PAO1; format: cell-based, Pseudomonas aeruginosa; details: QSI at 0.5 mg/ml, 18 hours at 37°C, β-galactosidase
Procedure: Figure 6 QSIs modulated QS-regulated genes in P. aeruginosa. The β-galactosidase (b-Gal) activity in Miller unit (MU) of the transcriptional fusions lasI-lacZ (A), lasR-lacZ (B), lasB-lacZ (C), rhlI-lacZ (D), rhlR-lacZ (E), rhlA-lacZ (F), and aecA-lacZ(G) were measured in the presence of estradiol, estrone, estriol, hordenine at 0.5 mg/ml, and naringenin at 1 mg/ml as a positive control and DMSO as a negative control. The statistical significance of each test (n = 5 and three biological replicates) was evaluated by Student's t test (i.e. each test was compared with the DMSO condition). Asterisks indicate statistically different data (p value of ≤0.01).
as §6

T1 sequence (P25084 whole entry): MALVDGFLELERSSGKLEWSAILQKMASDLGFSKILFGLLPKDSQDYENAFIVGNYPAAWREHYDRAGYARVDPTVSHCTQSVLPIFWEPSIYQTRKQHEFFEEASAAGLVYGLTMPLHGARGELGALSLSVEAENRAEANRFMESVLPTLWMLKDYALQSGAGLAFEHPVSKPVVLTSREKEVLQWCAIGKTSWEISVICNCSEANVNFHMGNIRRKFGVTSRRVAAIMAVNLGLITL
T2 sequence (P54292 whole entry): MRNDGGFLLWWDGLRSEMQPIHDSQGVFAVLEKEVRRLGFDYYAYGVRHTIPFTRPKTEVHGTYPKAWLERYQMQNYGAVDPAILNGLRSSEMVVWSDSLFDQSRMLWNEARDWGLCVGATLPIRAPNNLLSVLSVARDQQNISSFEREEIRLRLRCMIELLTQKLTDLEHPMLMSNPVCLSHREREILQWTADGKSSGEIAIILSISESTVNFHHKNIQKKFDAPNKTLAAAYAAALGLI

| SMILES | effect on LasR functionality (lux luminescence) [1] | effect on RhlR functionality (lux luminescence) [2] | MIC [3] | MBC [4] | effect on growth of P. aeruginosa [5] | C4-HSL concentration in cell cultures [6] | OC12-HSL concentration in cell cultures [6] | expression of six QS-regulated genes (lasI, lasR, lasB, rhlI, rhlR, rhlA) [7] |
| --- | --- | --- | --- | --- | --- | --- | --- | --- |
| C[C@@H]1O[C@@H](O[C@H]2[C@H](Oc3cc(O)c4c(c3)O[C@H](c3ccc(O)cc3)CC4=O)O[C@H](CO)[C@@H](O)[C@@H]2O)[C@H](O)[C@H](O)[C@H]1O [naringin, 4′,5,7-trihydroxyflavanone 7-rhamnoglucoside] | no effect | no effect | – | – | – | – | – | – |
| C[C@]12CC[C@@H]3c4ccc(O)cc4CC[C@H]3[C@@H]1CC[C@@H]2O [Estradiol, estradiol] | affected LasR functionality | – | > 100 µg/mL | > 100 µg/mL | did not affect the growth | reduction | reduction | decreased |
| O=C1CC(c2ccc(O)cc2)Oc2cc(O)cc(O)c21 (centres unmarked) [naringenin, 4′,5,7-trihydroxyflavanone] | less luminescence | less luminescence | – | – | – | – | – | – |
